Measurements taken from paper PMC10610198, “Inhibitory Activity of Natural cis-Khellactone on Soluble Epoxide Hydrolase and Proinflammatory Cytokine Production in Lipopolysaccharides-Stimulated RAW264.7 Cells” (Plants, 2023).

Molecular target: T1, soluble epoxide hydrolase (sEH) (Homo sapiens, UniProt P34913)
T1 construct: gene EPHX2
T1 sequence (P34913 1-555): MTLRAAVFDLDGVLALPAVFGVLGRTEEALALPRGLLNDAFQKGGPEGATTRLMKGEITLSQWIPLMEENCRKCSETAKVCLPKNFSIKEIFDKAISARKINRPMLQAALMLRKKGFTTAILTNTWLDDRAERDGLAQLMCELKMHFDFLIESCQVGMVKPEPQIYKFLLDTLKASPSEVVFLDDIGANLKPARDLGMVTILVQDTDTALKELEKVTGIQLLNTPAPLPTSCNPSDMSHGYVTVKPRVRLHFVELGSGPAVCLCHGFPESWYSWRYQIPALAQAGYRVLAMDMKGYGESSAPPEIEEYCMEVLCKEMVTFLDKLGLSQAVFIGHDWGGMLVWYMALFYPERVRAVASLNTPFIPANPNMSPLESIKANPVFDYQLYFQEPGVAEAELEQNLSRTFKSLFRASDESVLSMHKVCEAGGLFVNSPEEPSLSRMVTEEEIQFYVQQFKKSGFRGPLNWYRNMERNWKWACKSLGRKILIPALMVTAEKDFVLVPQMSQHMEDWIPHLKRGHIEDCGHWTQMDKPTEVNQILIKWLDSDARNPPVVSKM
Assay: fluorescent PHOME hydrolysis assay with recombinant sEH; Lineweaver–Burk and Dixon plots
Type: biochemical

Ki: 3.5 µM
Structure (SMILES): CC1(C)Oc2ccc3ccc(=O)oc3c2[C@H](O)[C@@H]1O [compound 1, (−)cis-Khellactone]
